Measurements published in patent US9617264B2, “2,7-diazaspiro[3.5]nonane compounds” (REMYND NV, priority 2014, dated 2017).

Tests used:
INS-1E cells = assay: Cytokine-induced apoptosis (caspase-3/7 activation, Caspase-Glo 3/7) in INS-1E rat insulinoma cells; format: cell-based; settings: cytokine mix (IFN-γ, IL-1, TNF-α), 24 hours, caspase 3/7 activity, read-out: CYT EC50
Excerpt: The INS-1E cell line, a rat insulinoma cell line, has been characterized extensively. INS-1E cells respond to glucose by secreting insulin and, unlike most other immortalized n-cell lines, they do this in a consistent manner over time. The cells are sensitive to hyperglycemia-, free fatty acid (FFA)-, and cytokine-induced stress. Prolonged stress ultimately leads to induction of apoptotic pathways and, if stress is not counter-acted, to apoptosis. Caspase-3 and -7 play a central role downstream where various apoptotic pathways merge. As such, activation (i.e. cleavage) of these caspases forms a relevant primary read-out to evaluate protective activity of compounds against stress-induced apoptosis.
To evaluate the efficacy of different compounds to prevent induction of apoptosis, an in vitro screen was developed in which INS-1E cells were exposed to a cytokine mix (IFN-γ, 5 ng/ml; IL-1, 20 pg/ml; TNF-α, 0.25 ng/ml). The degree of induction of apoptosis was evaluated using a substrate for cleaved caspase-3 and -7, i.e. a proluminescent caspase-3/7 DEVD aminoluciferin substrate with a thermostable luciferase (Caspase-Glo® 3/7 assay; Promega, cat. G8092).
On day 0, INS-1E cells were plated in a white-walled 96-well microplate (Greiner, cat. 655098) at 20,000 cells per well in 100 μl complete medium (RPMI containing 11 mM glucose supplemented with 5% FCS, 100 IU/ml penicillin, 100 μg/ml streptomycin, 10 mM HEPES, 1 mM Sodium Pyruvate and 50 μM 2-Mercapto-ethanol). On day 2, 100 μl medium containing cytokines and compound dissolved in DMSO was added to the cells. Wells without cytokines containing DMSO and wells with cytokines and DMSO were included to evaluate the degree of caspase 3/7 activation by the cytokine mix. After 24 hours exposure to cytokines and/or compound, Caspase-Glo® 3/7 reagent was added to the cells and caspase activity was determined by measuring luminescence.
To evaluate compound efficacy, the “toxicity window” was calculated by subtracting caspase activity of wells without stressor from activity of wells with stressor but without compound. The amount of caspase activity in the latter wells was normalized to 1 and used as reference. Subsequently, caspase activity in the wells with stressor and varying concentrations of compound was calculated relative to the wells without compound. Plotting caspase activity vs the log 10 of the concentration of compound permitted calculation of the EC50 values for the compounds which typically lied between 0.0001 and 10 μM. Compounds with an EC50<10 μM were considered active.

M17_3SYN cells = assay: Paraquat-induced cytotoxicity (LDH) in α-synuclein over-expressing M17_3SYN neuroblastoma cells; format: cell-based; settings: Homo sapiens, Neuroblastoma cell, 48 h, 6 mM Paraquat, 2 days, LDH toxicity inhibition, read-out: SYN EC50
Excerpt: A α-synuclein expression plasmid was constructed by subcloning the NcoI/XhoI fragment from 212T-SYN(WT) (Griffioen et al., Biochem Biophys Acta (2006) 1762(3):312-318) containing the cDNA of human wild type α-synuclein correspondingly into a standard mammalian expression vector pcDNA3.1 resulting in plasmid pcDNA3.1-SYNwt. Plasmids pcDNA3.1 and pcDNA3.1-SYNwt were transfected into human neuroblastoma cells (BE-M17; ATCC No. CRL-2267™) using lipofectamine reagent and subsequently, independent clonal cell lines with the plasmids stably integrated into the genome were selected by antibiotic resistance selection (Geneticin (G418)), resulting in cell lines M17.pcDNA3 and M17_3SYN. Overexpression of α-synuclein in the M17_3SYN cell line was confirmed by Western blot analysis.
Due to the high levels of α-synuclein, M17_3SYN cells were sensitive to paraquat, a well-known risk factor Parkinson's disease and of synuclein-dependent neuronal degeneration. Cytotoxicity of cells was measured by quantification of lactate dehydrogenase (LDH) levels. In dead cells, LDH leaked out of the cells into the medium due to a loss of plasma-membrane integrity.
Three days preceding the experiment, primary pre-cultures of M17.pcDNA3 (as possible control) and M17_3SYN cells were prepared, starting from a stock culture, at a density of 20.000-40.000 cells/cm2 in culture medium (Opti-MEM® Reduced Serum Medium with Phenol Red (Invitrogen, Cat. 31985-047) supplemented with 10% FCS, 1 mM sodium pyruvate, 1×NEAA, 500 μg/ml G418 and 0.5× antibiotic/antimycotic (ABAM)). 3 days later these primary pre-cultures were used as a starting point to make secondary pre-cultures at a density of 50.000-100.000 cells/cm^2. At the day of the experiment these secondary precultures were diluted to ˜0.5·10^6 cells/ml in detection medium (Opti-MEM® Reduced-Serum Medium without Phenol Red (Invitrogen, Cat. 11085-021) supplemented with 10% FCS, 1 mM sodium pyruvate, 1×NEAA, 500 μg/ml G418 and 0.5×ABAM) and 60 μL of this suspension was dispensed per well into a 96-well microtiter plate. After 3 hours of incubation at 37° C./5% CO2 an equal volume of detection medium containing a final concentration of 6 mM Paraquat was added and subsequently incubated for 2 days at 37° C./5% CO2. Then LDH activity was determined using the Promega Cytotox 96 Non-Radioactive cytotoxicity assay (Promega, Cat. G1780), according to the manufacturer's instructions. Cytotoxicity was defined as the ratio of LDH relative to the total LDH in the cells and supernatant.
The assay described above using the M17_3SYN cell line allowed screening compounds for their ability to decrease cytotoxicity in PQ-challenged cells. Compounds of the invention were tested for their ability to decrease toxicity at different concentrations, ranging from low non-effective concentrations to high effective concentrations. Afterwards, a dose-dependent inhibition curve was used to calculate the EC50. A compound was considered to be active in this test when it inhibited toxicity by more than 20% relative to untreated M17_3SYN cells at a concentration of […] or lower.

Structure (SMILES) | EC50 (INS-1E cells) | EC50 (M17_3SYN cells)
COc1ccc(S(=O)(=O)N2CCC3(CC2)CN(C(=O)C(C)c2cc(F)cc(F)c2)C3)cc1 (stereo not shown) [Cmpd029, 2-(3,5-Difluorophenyl)-1-(7-((4-methoxyphenyl)sulfonyl)-2,7-diazaspiro[3.5]nonan-2-yl)propan-1-one] | 57 nM | 189 nM
COc1ccc(S(=O)(=O)N2CCC3(CC2)CN(C(=O)C2(c4ccccc4)CCCC2)C3)cc1 [Cmpd028, (7-((4-Methoxyphenyl)sulfonyl)-2,7-diazaspiro[3.5]nonan-2-yl)(1-phenylcyclopentyl)methanone] | 29 nM | 22 nM
COc1ccc(S(=O)(=O)N2CCC3(CC2)CN(C(=O)C(C)(C)c2cccc(Cl)c2)C3)cc1 [Cmpd030, 2-(3-Chlorophenyl)-1-(7-((4-methoxyphenyl)sulfonyl)-2,7-diazaspiro[3.5]nonan-2-yl)-2-methylpropan-1-one] | 134 nM | 5 nM
COc1ccc(S(=O)(=O)N2CCC3(CC2)CN(C(=O)C(C)(C)c2ccccc2OC)C3)cc1 [Cmpd024, 2-(2-Methoxyphenyl)-1-(7-((4-methoxyphenyl)sulfonyl)-2,7-diazaspiro[3.5]nonan-2-yl)-2-methylpropan-1-one] | 63 nM | 81.5 nM
COc1ccc(S(=O)(=O)N2CCC3(CC2)CN(S(=O)(=O)c2ccc(OC)cc2)C3)cc1 [Cmpd001, 2,7-Bis((4-methoxyphenyl)sulfonyl)-2,7-diazaspiro[3.5]nonane] | 201 nM | 1.1 nM
COc1ccc(S(=O)(=O)N2CCC3(CC2)CN(C(=O)CCc2ccc(F)cc2)C3)cc1 [Cmpd015, 3-(4-Fluorophenyl)-1-(7-((4-methoxyphenyl)sulfonyl)-2,7-diazaspiro[3.5]nonan-2-yl)propan-1-one] | 31 nM | 535 nM
COc1ccc(S(=O)(=O)N2CCC3(CC2)CN(S(=O)(=O)c2ccc(Cl)cc2)C3)cc1 [Cmpd005, 2-((4-Chlorophenyl)sulfonyl)-7-((4-methoxyphenyl)sulfonyl)-2,7-diazaspiro[3.5]nonane] | 20 nM | 6.4 nM
COc1ccc(S(=O)(=O)N2CCC3(CC2)CN(C(=O)C2CCCc4ccccc42)C3)cc1 (stereo not shown) [Cmpd025, (7-((4-Methoxyphenyl)sulfonyl)-2,7-diazaspiro[3.5]nonan-2-yl)(1,2,3,4-tetrahydronaphthalen-1-yl)methanone] | 616 nM | 65.3 nM
COc1ccc(S(=O)(=O)N2CCC3(CC2)CN(C(=O)C(C)c2ccc(Cl)cc2)C3)cc1 (stereo not shown) [Cmpd026, 2-(4-Chlorophenyl)-1-(7-((4-methoxyphenyl)sulfonyl)-2,7-diazaspiro[3.5]nonan-2-yl)propan-1-one] | 88 nM | 131 nM
CS(=O)(=O)c1cccc(S(=O)(=O)N2CCC3(CC2)CN(c2nc(Cc4ccc(F)cc4)ns2)C3)c1 [Cmpd082, 3-(4-Fluorobenzyl)-5-(7-((3-(methylsulfonyl)phenyl)sulfonyl)-2,7-diazaspiro[3.5]nonan-2-yl)-1,2,4-thiadiazole] | 34 nM | 477 nM
COc1ccc(C(C)C(=O)N2CC3(CCN(S(=O)(=O)c4ccc(OC)cc4)CC3)C2)cc1 (stereo not shown) [Cmpd019, 2-(4-Methoxyphenyl)-1-(7-((4-methoxyphenyl)sulfonyl)-2,7-diazaspiro[3.5]nonan-2-yl)propan-1-one] | 54 nM | 95.3 nM
COc1ccc(S(=O)(=O)N2CCC3(CC2)CN(C(=O)C(C)c2ccccc2OC)C3)cc1 (stereo not shown) [Cmpd023, 2-(2-Methoxyphenyl)-1-(7-((4-methoxyphenyl)sulfonyl)-2,7-diazaspiro[3.5]nonan-2-yl)propan-1-one] | 19 nM | 39 nM
COc1ccc(S(=O)(=O)N2CCC3(CC2)CN(c2nc(CC(F)(F)F)ns2)C3)cc1 [Cmpd031, 5-(7-((4-Methoxyphenyl)sulfonyl)-2,7-diazaspiro[3.5]nonan-2-yl)-3-(2,2,2-trifluoroethyl)-1,2,4-thiadiazole] | 149 nM | 121 nM
COc1ccc(S(=O)(=O)N2CCC3(CC2)CN(C(=O)C(C)(O)c2ccccn2)C3)cc1 (stereo not shown) [Cmpd018, 2-Hydroxy-1-(7-((4-methoxyphenyl)sulfonyl)-2,7-diazaspiro[3.5]nonan-2-yl)-2-(pyridin-2-yl)propan-1-one] | 58 nM | 241 nM
COc1ccc(S(=O)(=O)N2CCC3(CC2)CN(C(=O)C(C)(C)c2ccc(Cl)cc2)C3)cc1 [Cmpd027, 2-(4-Chlorophenyl)-1-(7-((4-methoxyphenyl)sulfonyl)-2,7-diazaspiro[3.5]nonan-2-yl)-2-methylpropan-1-one] | 181 nM | 14.8 nM
CCC(C(=O)N1CC2(CCN(S(=O)(=O)c3ccc(OC)cc3)CC2)C1)c1ccccc1 (stereo not shown) [Cmpd011, 1-(7-((4-Methoxyphenyl)sulfonyl)-2,7-diazaspiro[3.5]nonan-2-yl)-2-phenylbutan-1-one] | 248 nM | 66.4 nM
COc1ccc(S(=O)(=O)N2CCC3(CC2)CN(C(=O)[C@H](c2ccc(F)cc2)C(C)C)C3)cc1 [Cmpd022, (S)-2-(4-fluorophenyl)-1-(7-((4-methoxyphenyl)sulfonyl)-2,7-diazaspiro[3.5]nonan-2-yl)-3-methylbutan-1-one] | 108 nM | 28.7 nM
COc1ccc(S(=O)(=O)N2CCC3(CC2)CN(C(=O)C2(c4ccccc4)CC2)C3)cc1 [Cmpd014, (7-((4-Methoxyphenyl)sulfonyl)-2,7-diazaspiro[3.5]nonan-2-yl)(1-phenylcyclopropyl)methanone] | 34 nM | 56.8 nM
CC(=O)Nc1ccc(S(=O)(=O)N2CCC3(CC2)CN(c2nc(Cc4ccc(F)cc4)ns2)C3)cc1 [Cmpd058, N-(4-((2-(3-(4-fluorobenzyl)-1,2,4-thiadiazol-5-yl)-2,7-diazaspiro[3.5]nonan-7-yl)sulfonyl)phenyl)acetamide] | 22 nM | 290 nM
O=S(=O)(c1cccs1)N1CCC2(CC1)CN(c1nc(Cc3ccc(F)cc3)ns1)C2 [Cmpd092, 3-(4-Fluorobenzyl)-5-(7-(thiophen-2-ylsulfonyl)-2,7-diazaspiro[3.5]nonan-2-yl)-1,2,4-thiadiazole] | 18 nM | 615 nM
